In a melting point compilation (Tetko et al.):

melting point | Structure (SMILES)
179 to 181 °C | Nc1n[nH]c(Cc2cccc(F)c2)n1
146 to 148 °C | CS(=O)(=O)NCc1ccc(N)cc1
169 to 171 °C | Cc1cccc(S(N)(=O)=O)c1Cl
186 to 188 °C | O=C1CC(C(=O)O)C(C(=O)O)C1 (stereo not drawn)
149 to 151 °C | NNc1cccnc1Cl
109 to 111 °C | CNC(=O)c1c(C)cccc1N
60 to 62 °C | N#Cc1cccnc1C1CC1
117 to 119 °C | O=C1COc2ccc(Br)cc2N1CCCl
185 to 187 °C | CN1C(=O)CCC(C(N)=O)C1c1cnn(C)c1 (stereo not drawn)
128 to 130 °C | CN(C)S(=O)(=O)c1cccc(C#N)c1
169 to 171 °C | O=C(O)Cc1ccc(OCCOc2ccccc2)cc1
133 to 135 °C | CC(C)CCn1nc(C(=O)O)c2ccccc2c1=O
154 to 156 °C | Cc1cc(N2CCNC(=O)C2)ccc1CN
163 to 165 °C | O=C(O)c1oc2ccccc2c1COc1ccccc1
47 to 51 °C | Cc1csc(=O)n1CCBr
155 to 157 °C | Clc1nc(-c2cccnc2)nc2scc(-c3ccccc3)c12
250 to 252 °C | CCN(CC)S(=O)(=O)c1c[nH]c(C(=O)O)c1
83 to 85 °C | CC(Oc1cccnc1N)c1ccccc1 (stereo not drawn)
181 to 183 °C | COc1ccc(-n2c(N)nc3ccccc32)cc1
116 to 118 °C | CC(C)(C)OC(=O)NCC(C)(C)C(=O)O

melting point | Structure (SMILES)
136 to 138 °C | O=C(O)Cc1csc(-c2ccco2)n1
142 to 144 °C | CN(C1CCCCC1)S(=O)(=O)c1ccc(N)cc1
114 to 116 °C | Cc1cc(C(=O)O)c(C)s1
92 to 94 °C | O=C(O)C=CC(=O)NCc1cccnc1
132 to 134 °C | O=C(NC1CCCCC1)c1cccnc1Cl
168 to 170 °C | O=C(O)c1ccccc1C(=O)c1ccc2c(c1)OCCO2
71 to 73 °C | Cc1ccc(SCCC(=O)O)cc1
115 to 117 °C | CN(C)c1nc(C=O)c(Cl)n1-c1ccc(Br)cc1
299 to 301 °C | Cn1cc(C(=O)O)c(-c2ccc([N+](=O)[O-])cc2)n1
145 to 147 °C | O=C(c1cccc([N+](=O)[O-])c1)N1CCNCC1
125 to 127 °C | C=CCNC(=O)NC(C)(C)C(=O)O
132 to 134 °C | O=Cc1ccc([N+](=O)[O-])c(O)c1
267 to 271 °C | O=c1[nH]cnc2ccc(Br)cc12
79 to 81 °C | COc1ccccc1C(C#N)NC(=O)OC(C)(C)C (stereo not drawn)
119 to 121 °C | O=C(O)c1ccccc1CO
194 to 196 °C | O=C(O)c1cc([N+](=O)[O-])ccc1N1CCCCC1
110 to 112 °C | Cc1noc2ncc(S(=O)(=O)Cl)cc12
66 to 68 °C | O=C(O)CNC(=O)c1ccccc1OC(F)F
208 to 212 °C | CCOc1ccc(-c2nnc(S)n2N)cc1
116 to 118 °C | NS(=O)(=O)c1ccccc1-c1ccccc1

melting point | Structure (SMILES)
89 to 91 °C | CC(C)c1ccc2c(c1)[C@@H](O)CCC2
149 to 151 °C | CC1C(=O)NCCN1C(=O)c1ccc(Cl)s1 (stereo not drawn)
185 to 187 °C | COc1ccc(-c2nnc(N)s2)cc1
178 to 180 °C | CCCOc1ccc2c(c1)OCC(C(=O)O)=C2
159 to 161 °C | Cc1nc(C(N)=O)c(N)n1C
49 to 51 °C | Fc1ccc(OCC2CNCCO2)cc1F (stereo not drawn)
61 to 63 °C | COc1c(OC(F)F)ccc(C=O)c1[N+](=O)[O-]
173 to 175 °C | CCOc1cc(C(=O)O)ccc1C
148 to 150 °C | O=C(O)CCc1ncc(-c2ccccc2)o1
219 to 221 °C | Nc1ccc(-c2nncn2-c2ccccc2)cn1
152 to 154 °C | Cc1ccc2cccc(C(=O)O)c2n1
114 to 116 °C | CCOC(=O)Cn1ncc2ccc(N)cc21
149 to 151 °C | Cc1cccc(-c2nc(C(=O)O)c(C)[nH]2)c1
62 to 64 °C | O=C(OCc1ccccc1)N1CCC(S(=O)(=O)Cl)CC1
76 to 78 °C | Cc1c(Cl)cnc(Cl)c1C#N
225 to 227 °C | O=C(O)C=Cc1cn(-c2ccccc2)nc1-c1cc2ccccc2o1
94 to 96 °C | CC(Cl)C(=O)Nc1cccc(I)c1 (stereo not drawn)
169 to 171 °C | Cc1nc(C(C)C)sc1C(=O)O

Second part, the compound before the results:

Structure (SMILES) | melting point
COc1cccc(-n2cnnc2S)c1 | 167 to 169 °C
ClCc1nc2ncc(Br)cc2[nH]1 | 209 to 211 °C
NNC(=O)Nc1cc(F)cc(F)c1 | 176 to 178 °C
Nc1cccc(NC(=O)c2cccnc2)c1 | 155 to 157 °C
CNc1ccccc1S(C)(=O)=O | 96 to 98 °C
CCOc1ccc(S(=O)(=O)N(CC)CC)cc1N | 119 to 121 °C
O=C(CCl)N1CCCC1 | 56 to 58 °C
CCc1cccc(N2CC(C(=O)O)CC2=O)c1 (stereo not drawn) | 120 to 122 °C
O=C(O)c1cc(Cl)[nH]c(=O)c1 | 249 to 251 °C
NC(CC(=O)N1CCCCC1)=NO | 179 to 181 °C
Cc1cc(C)nc(N)c1 | 63 to 64 °C
Cc1cc(C(=O)O)c(C)n1C1CCCCC1 | 204 to 206 °C
O=C(O)CNC(=O)c1ccccc1Br | 138 to 140 °C
CCc1c(C(=O)O)cnn1Cc1ccccc1 | 124 to 126 °C
CCc1cccc2c(C(=O)CCl)c[nH]c12 | 165 to 167 °C
Sc1ncc(-c2ccc(Br)cc2)[nH]1 | 210 to 212 °C
CC(Cl)c1nc2scc(-c3cccs3)c2c(=O)[nH]1 (stereo not drawn) | 241 to 243 °C
CC(=O)Nc1cccc(N)c1C | 142 to 144 °C
O=C(CCl)NCc1cccc(NC(=O)C2CC2)c1 | 175 to 177 °C
COC(=O)c1cc(CBr)on1 | 59 to 61 °C
Cn1c(SCC(=O)O)nnc1-c1cccs1 | 205 to 207 °C
CC(=O)c1[nH]c2c(c1C)C(=O)NC(=O)C2 | 354 to 356 °C
CCOC(=O)C(=O)Cc1ccc2ccccc2n1 | 130 to 132 °C

Structure (SMILES) | melting point
O=C(Nc1ccccc1O)C1CC1 | 136 to 138 °C
Nc1nc(C(=O)O)n[nH]1 | 178 to 182 °C
COc1cc(C(=O)O)cc(NS(C)(=O)=O)c1OC | 214 to 216 °C
CC(Cc1nnc(S)o1)c1ccccc1 (stereo not drawn) | 102 to 104 °C
O=C1CCC2SCCSC12 (stereo not drawn) | 81 to 83 °C
Nc1ccnc(OCCO)c1 | 99 to 101 °C
Cc1oc(-c2ccsc2)nc1CCl | 101 to 103 °C
CN1CC(=O)Nc2cc(C(=O)O)ccc21 | 322 to 324 °C
O=C(O)C=Cc1cnc2ccccc2n1 | 233 to 235 °C
Nc1ccc(Cl)cc1C(=O)N1CCCC1 | 139 to 141 °C
Cc1nc(S)n(C2CCCCC2)c1C | 218 to 220 °C
COCCS(=O)(=O)c1ccc(Cl)c(C(=O)O)c1Cl | 129 to 131 °C
O=C(O)C1CCCN1C(=O)C1CCCC1 (stereo not drawn) | 125 to 127 °C
Nc1cc(C(=O)O)ccc1Br | 226 to 230 °C
CS(=O)(=O)c1c(F)cc(N)cc1F | 169 to 171 °C
CS(=O)(=O)N1CCN(C(=O)c2ccc(O)cc2)CC1 | 211 to 213 °C
CC(=O)Nc1ccc(OCC2CO2)cc1 (stereo not drawn) | 117 to 119 °C
Cn1c2ccccc2n2c(S)nnc12 | 270 to 272 °C
CN1CCCN(c2ccc(C#N)cc2Cl)CC1 | 40 to 42 °C
Cc1cccc(NC(=O)Nc2cccc(CN)c2)c1 | 163 to 165 °C
Cc1cc(C)nc(-n2nc(C(=O)O)cc2C)n1 | 189 to 191 °C
CC1CC1C(=O)Nc1ccc(F)cc1C(=O)O (stereo not drawn) | 173 to 175 °C
